Experimental data published in patent US20240390471A1, “COMPOUNDS AND ADJUVANT FORMULATIONS USEFUL IN PNEUMOCOCCAL VACCINES” (Merck Sharp & Dohme LLC, priority 2023, published 2024).

Legend:
human TLR8 = target: T1, human TLR8 (Homo sapiens, UniProt Q9NR97); test: Cell-based TLR 7/8 assay, HEK-Blue TLR8 cells (SEAP reporter); conditions: based on Compound concentration only; Compounds formulated as SNEs; read-out: huTLR8 EC50 (converted)
T1 construct: host or cells: HEK-Blue 293 cells expressing human TLR8
T1 sequence (Q9NR97 27-1041): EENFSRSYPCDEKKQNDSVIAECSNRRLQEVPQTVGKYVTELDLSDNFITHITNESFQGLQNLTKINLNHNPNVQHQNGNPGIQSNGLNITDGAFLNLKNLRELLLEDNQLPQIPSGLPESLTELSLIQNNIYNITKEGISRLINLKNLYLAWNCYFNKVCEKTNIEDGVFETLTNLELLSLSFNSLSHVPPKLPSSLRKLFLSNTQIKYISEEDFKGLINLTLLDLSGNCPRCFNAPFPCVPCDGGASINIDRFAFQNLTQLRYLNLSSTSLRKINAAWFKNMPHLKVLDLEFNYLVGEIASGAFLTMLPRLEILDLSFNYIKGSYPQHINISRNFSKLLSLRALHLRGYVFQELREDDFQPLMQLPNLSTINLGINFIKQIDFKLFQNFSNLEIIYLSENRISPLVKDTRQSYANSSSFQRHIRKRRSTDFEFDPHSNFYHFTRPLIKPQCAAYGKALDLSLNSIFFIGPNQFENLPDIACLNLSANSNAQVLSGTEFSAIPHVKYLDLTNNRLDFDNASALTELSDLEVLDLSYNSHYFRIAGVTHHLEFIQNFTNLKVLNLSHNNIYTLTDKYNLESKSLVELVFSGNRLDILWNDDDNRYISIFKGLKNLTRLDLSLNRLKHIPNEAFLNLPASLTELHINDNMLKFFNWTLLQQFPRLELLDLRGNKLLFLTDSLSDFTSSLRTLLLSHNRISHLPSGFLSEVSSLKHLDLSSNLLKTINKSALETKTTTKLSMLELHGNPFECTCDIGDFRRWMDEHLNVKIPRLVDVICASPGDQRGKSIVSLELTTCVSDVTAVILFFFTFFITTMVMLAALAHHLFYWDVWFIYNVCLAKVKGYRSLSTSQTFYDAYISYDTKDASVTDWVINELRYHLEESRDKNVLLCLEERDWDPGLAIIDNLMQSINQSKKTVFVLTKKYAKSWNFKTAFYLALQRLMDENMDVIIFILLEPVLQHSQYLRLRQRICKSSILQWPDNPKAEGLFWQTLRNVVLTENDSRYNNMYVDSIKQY
Description: (§1) HEK-Blue™ TLR7 and TLR8 cells (InvivoGen) were designed to assess the stimulation of TLR7 and TLR8 by monitoring the activation of NF-κB and AP-1. Compound B-1-SNE samples were diluted 1:2 across an 8-point titration in diluent buffer histidine/PS-20 in a sterile V-bottom plate. 20 μL of samples were transferred to corresponding wells of two flat bottom assay plates. Media was aspirated from HEK-Blue™ human TLR 7 and TLR 8 cells (T-75 flasks) and gently rinsed with pre-warmed (37° C.) DPBS for a total volume of 5 mL/flask. The DPBS was gently removed from the cells and cells were gently manually dislodged and resuspended in 2 mL of DPBS. Cell assay suspensions were then prepared at approximately 2.2×10^5 cells per mL of HEK-Blue™ detection medium (InvivoGen). 180 μL of cell suspension in detection medium was added to each well of the two flat bottom assay plates containing the diluted Compound B-1-SNE samples for a final dilution of sample equaling 1:10 (180 μL of cell suspension in detection medium and 20 μL of sample). The cells were then incubated at 37° C. in 5% CO2 for 20 hrs. The reporter gene, NF-Kb, induces the production of secreted embryonic alkaline phosphatase (SEAP) when stimulated and can be monitored using the vendor supplied SEAP detection kit. SEAP colorimetric changes were read at an absorbance of 640 nm using a SpectroMax Stakmax plate reader. […] EC50 values were calculated based on total Compound B-1-SNE concentration using GraphPad Prism Software and analyzed using agonist vs. response variable slope (four parameters) least squares fit.
(§2) Further to the description in Example 10, a cell-based activation system was used to assess activity of the Compound-formulated nanoemulsion systems, prepared as described in examples, supra. HEK-Blue™ TLR7 and TLR8 cells (InvivoGen) were designed to assess the stimulation of TLR7 and TLR8 by monitoring the activation of NF-κB and AP-1. Compound-SNE samples were diluted 1:2 across an 8-point titration in diluent buffer histidine/PS-20 in a sterile V-bottom plate. 20 μL of samples were transferred to corresponding wells of two flat bottom assay plates. Media was aspirated from HEK-Blue™ human TLR 7 and TLR 8 cells (T-75 flasks) and gently rinsed with pre-warmed (37° C.) DPBS for a total volume of 5 mL/flask. The DPBS was gently removed from the cells and cells were gently manually dislodged and resuspended in 2 mL of DPBS. Cell assay suspensions were then prepared at approximately 2.2×10^5 cells per mL of HEK-Blue™ detection medium (InvivoGen). 180 μL of cell suspension in detection medium was added to each well of the two flat bottom assay plates containing the diluted Compound-SNE samples for a final dilution of sample equaling 1:10 (180 μL of cell suspension in detection medium and 20 μL of sample). The cells were then incubated at 37° C. in 5% CO2 for 20 hrs. The reporter gene, NF-Kb, induces the production of secreted embryonic alkaline phosphatase (SLAP) when stimulated and can be monitored using the vendor supplied SLAP detection kit. SLAP colorimetric changes were read at an absorbance of 640 nm using a SpectroMax Stakmax plate reader. EC50s were calculated based on Compound concentration only, not total Compound-SNE concentration (Table 6) using GraphPad Prism Software and analyzed using agonist vs. response variable slope (four parameters) least squares fit.

human TLR7 = target: T2, human TLR7 (Homo sapiens, UniProt Q9NYK1); test: Cell-based TLR 7/8 assay, HEK-Blue TLR7 cells (SEAP reporter); conditions: based on Compound concentration only; Compounds formulated as SNEs; read-out: huTLR7 EC50 (converted)
T2 construct: host or cells: HEK-Blue 293 cells expressing human TLR7
T2 sequence (Q9NYK1 27-1049): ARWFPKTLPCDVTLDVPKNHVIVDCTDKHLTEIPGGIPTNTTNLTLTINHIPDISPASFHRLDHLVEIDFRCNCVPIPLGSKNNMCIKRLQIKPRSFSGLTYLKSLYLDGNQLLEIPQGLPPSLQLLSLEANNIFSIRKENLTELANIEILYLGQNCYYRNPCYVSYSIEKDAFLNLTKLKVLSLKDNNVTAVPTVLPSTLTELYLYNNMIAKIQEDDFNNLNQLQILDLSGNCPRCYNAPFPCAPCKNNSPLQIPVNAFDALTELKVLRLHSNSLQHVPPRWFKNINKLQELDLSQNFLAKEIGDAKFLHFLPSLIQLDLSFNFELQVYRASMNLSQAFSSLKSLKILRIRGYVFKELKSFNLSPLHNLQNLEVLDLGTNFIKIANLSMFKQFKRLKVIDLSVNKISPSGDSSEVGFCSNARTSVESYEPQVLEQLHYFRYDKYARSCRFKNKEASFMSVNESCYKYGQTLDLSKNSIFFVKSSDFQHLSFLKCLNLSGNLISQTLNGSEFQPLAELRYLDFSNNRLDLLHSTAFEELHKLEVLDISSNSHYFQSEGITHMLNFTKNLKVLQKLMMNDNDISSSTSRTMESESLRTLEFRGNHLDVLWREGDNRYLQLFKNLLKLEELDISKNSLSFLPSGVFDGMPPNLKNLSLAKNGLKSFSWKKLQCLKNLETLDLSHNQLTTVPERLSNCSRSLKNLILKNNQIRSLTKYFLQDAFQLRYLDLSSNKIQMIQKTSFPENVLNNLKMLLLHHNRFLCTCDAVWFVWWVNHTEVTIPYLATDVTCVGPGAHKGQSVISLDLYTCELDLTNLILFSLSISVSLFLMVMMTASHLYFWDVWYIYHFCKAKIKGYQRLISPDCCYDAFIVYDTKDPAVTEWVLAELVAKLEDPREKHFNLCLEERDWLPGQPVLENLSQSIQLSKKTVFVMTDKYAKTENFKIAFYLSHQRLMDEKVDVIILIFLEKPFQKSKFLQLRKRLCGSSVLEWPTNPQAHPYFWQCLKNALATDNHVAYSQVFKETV
Description: as §1, §2

| Compound | EC50 (human TLR8) [nM] | EC50 (human TLR7) [µM] |
| --- | --- | --- |
| CCCCC/C=C\C/C=C\CCCCCCCC(=O)NCCCCC(=O)N1CCN(c2ccc(Cn3cc4nc(N)nc(NCCCC)c4n3)c(OC)c2)CC1 [Compound B-4, (9Z,12Z)—N-(5-(4-(4-((5-amino-7-(butylamino)-2H-pyrazolo[4,3-d]pyrimidin-2-yl)methyl)-3-methoxyphenyl)piperazin-1-yl)-5-oxopentyl)octadeca-9,12-dienamide] | 389 | 0.389 |
| CCCCCCCC/C=C\CCCCCCCC(=O)NCCCCC(=O)N1CCN(c2ccc(Cn3cc4nc(N)nc(NCCCC)c4n3)c(OC)c2)CC1 [Compound B-3, N-(5-(4-(4-((5-amino-7-(butylamino)-2H-pyrazolo[4,3-d]pyrimidin-2-yl)methyl)-3-methoxyphenyl)piperazin-1-yl)-5-oxopentyl)oleamide] | 129 | 0.155 |
| CCCCCCCCCCCCCCCCCC(=O)NCCCC(=O)N(C)Cc1cc(OC)c(Cn2cc3nc(N)nc(NCCCC)c3n2)c(OC)c1 [Compound C-5, N-(4-((4-((5-amino-7-(butylamino)-2H-pyrazolo[4,3-d]pyrimidin-2-yl)methyl)-3,5-dimethoxybenzyl)(methyl)amino)-4-oxobutyl)stearamide] | 93.2 | 0.639 |
| CCCCCCCCCCCCCCCCCC(=O)NCCCCC(=O)N1CCN(c2cc(OC)c(Cn3cc4nc(N)nc(N[C@H](CO)CCC)c4n3)c(OC)c2)CC1 [Compound A-2, (S)—N-(5-(4-(4-((5-amino-7-((1-hydroxypentan-2-yl)amino)-2H-pyrazolo[4,3-d]pyrimidin-2-yl)methyl)-3,5-dimethoxyphenyl)piperazin-1-yl)-5-oxopentyl)stearamide] | 454 | 7.53 |
| CCCCC/C=C\C/C=C\CCCCCCCC(=O)NCCCCN(C)Cc1cc(OC)c(Cn2cc3nc(N)nc(NCCCC)c3n2)c(OC)c1 [Compound C-1, (9Z,12Z)—N-(4-((4-((5-amino-7-(butylamino)-2H-pyrazolo[4,3-d]pyrimidin-2-yl)methyl)-3,5-dimethoxybenzyl)(methyl)amino)butyl)octadeca-9,12-dienamide] | 95.5 | 0.259 |

Second part, the molecule after the results:

| EC50 (human TLR8) [nM] | EC50 (human TLR7) [µM] | Compound |
| --- | --- | --- |
| 5370 | 14.9 | CCCCCCCCCCCCCCCCCC(=O)NCCCCC(=O)N1CCN(c2cc(OC)c(Cn3cc4nc(N)nc(NCCCC)c4n3)c(OC)c2)CC1 [Compound A-1, N-(5-(4-(4-((5-amino-7-(butylamino)-2H-pyrazolo[4,3-d]pyrimidin-2-yl)methyl)-3,5-dimethoxyphenyl)piperazin-1-yl)-5-oxopentyl)stearamide] |
| 3390 | 8.43 | CCCCCCCCCCCCCCCCCC(=O)NCCCCC(=O)N1CC(c2ccc(Cn3cc4nc(N)nc(NCCCC)c4n3)c(OC)c2)C1 [Compound B-7, N-(5-(3-(4-((5-amino-7-(butylamino)-2H-pyrazolo[4,3-d]pyrimidin-2-yl)methyl)-3-methoxyphenyl)azetidin-1-yl)-5-oxopentyl)stearamide] |
| 54000 | 64.7 | CCCCCCCCCCCCCCCCCC(=O)NCCCNC(=O)C1CCN(c2ccc(Cn3cc4nc(N)nc(NCCCC)c4n3)c(OC)c2)CC1 [Compound B-8, 1-(4-((5-amino-7-(butylamino)-2H-pyrazolo[4,3-d]pyrimidin-2-yl)methyl)-3-methoxyphenyl)-N-(3-stearamidopropyl)piperidine-4-carboxamide] |
| 2590 | 4.19 | CCCCCCCCCCCCCCCCCC(=O)NCCCCC(=O)N1CCC(c2ccc(Cn3cc4nc(N)nc(NCCCC)c4n3)c(OC)c2)CC1 [Compound B-6, N-(5-(4-(4-((5-amino-7-(butylamino)-2H-pyrazolo[4,3-d]pyrimidin-2-yl)methyl)-3-methoxyphenyl)piperidin-1-yl)-5-oxopentyl)stearamide] |
| 11900 | 135 | CCCCCCCCCCCCCCCCCC(=O)NCCCC(C)(C)C(=O)N1CCN(c2ccc(Cn3cc4nc(N)nc(NCCCC)c4n3)c(OC)c2)CC1 [Compound B-14, N-(5-(4-(4-((5-amino-7-(butylamino)-2H-pyrazolo[4,3-d]pyrimidin-2-yl)methyl)-3-methoxyphenyl)piperazin-1-yl)-4,4-dimethyl-5-oxopentyl)stearamide] |
| 554 | 0.837 | CCCCCCCCCCCCCCCCCC(=O)NCCCCC(=O)N1CCN(c2ccc(Cn3cc4nc(N)nc(NCCCC)c4n3)c(OC)c2)CC1 [Compound B-1, N-(5-(4-(4-((5-amino-7-(butylamino)-2H-pyrazolo[4,3-d]pyrimidin-2-yl)methyl)-3-methoxyphenyl)piperazin-1-yl)-5-oxopentyl)stearamide] |
